{"source": "patent US20260125357A1", "about": "“LACTATE ENHANCING COMPOUNDS AND USES THEREOF” (GLIAPHARM SA, priority 2022, published 2026)", "key": {"[1]": {"system": "human iPSC-derived astrocytes", "test": "Release of lactate from human iPSC-derived astrocytes", "type": "cell-based", "settings": "treated for 1.5 hours", "method": "Secretion of L-lactate was measured in the extracellular medium of 96-well plated astrocytes after 90 min stimulation (at 37° C., in 5% CO2/95% air conditions) with Vehicle (DMSO), the compounds of the invention (100 nM to 100 μM) or positive control. […] Stimulation medium was composed of D5030 medium complemented with 5 mM D-glucose and 44 mM sodium bicarbonate, pH 7.2. To quantify lactate concentrations in the extracellular medium, 200 μl of a 0.2M Glycine-semicarbazide buffer (pH 10) containing 3 mM NAD and 14 U/ml LDH was added to each well of a 96-well plate containing 30 μl aliquots of extracellular medium. Samples were incubated at 37° C. for 1 h. Fluorescence intensity (340 nm excitation/450 nm emission), which represents the amount of NADH produced, was measured, and lactate concentration values were determined relative to a standard curve of L-lactate concentrations.\nHuman iPSC-derived astrocytes were purchased from NCardia (NCyte Astrocytes) and were plated at a density of ˜10′000 cells/cm^2 in 96-well or 12-well plates, according to the manufacturer's instructions and using the recommended media. Experiments were performed at 7 days in vitro. Cells were treated for 1.5 hours with compound (2). Uptake of 2-DG and release of lactate were quantified as described previously."}, "C57Bl/6J wild-type mice": {"system": "C57Bl/6J wild-type mice", "test": "18F-FDG PET glucose uptake in the brain", "type": "in vivo, mouse", "settings": "gavage, 30 mg/kg, vs Vehicle", "method": "All experiments were carried out in strict accordance with the Swiss Federal Guidelines for Animal Experimentation and were approved by the Cantonal Veterinary Office for Animal Experimentation (Canton of Geneva, Switzerland). Adult male C57Bl/6J wild-type mice weighting 18-28 g (8 to 12 weeks of age) were used (Charles River Laboratories). Animals were housed in groups of 3-5 in polypropylene cages (30×40×15 cm) with wire mesh top in a temperature (22±2° C.) and humidity (55±15%) controlled environment on a 12-hour light cycle (07.00-19.00 h lights on), except after surgeries when animal were housed individually. The samples (Vehicle or compounds of the invention) were administered per os (gavage) in a solution made of water supplemented with 0.4% hydroxypropyl methylcellulose (HPMC) Methocel 4 KM (w/v) and 0.25% Tween-20 (v/v), as previously described (Thackaberry et al., 2010, Toxicol Sci., 117(2):485-92). Concentrations of the compounds tested ranged from 3 to 30 mg/kg.\n^18F-FDG PET Glucose uptake in the brain was measured in vivo using 18F-fluorodeoxyglucose (FDG) with positron emission tomography (PET) Scan. Mice were fasted for 12 hours before the scans PET/CT measurements. Compounds of the invention were administered by gavage, followed by an intraperitoneal injection of 5 MBq of ^18F-FDG in 300 μL of saline. […]"}, "[2]": {"system": "Wild-type (WT) and GLUT1-DS transgenic mice", "test": "Grip strength test in WT and GLUT1-DS transgenic mice", "type": "in vivo, mouse", "settings": "10 mg/kg, after rotarod session", "text": "Heterozygous transgenic mice on 129/SvJ genetic background in which glucose transporter 1 (GLUT1) has been knocked down were used (GLUT1(+/−)) (Wang et al., 2016, Human Molecular Genetics, 15(7)). GLUT1-deficiency syndrome (GLUT1-DS) is a prototypic hypometabolic diseases caused by the mutation of GLUT1 and decreased levels of glucose and lactate in the brain (Tang et al., 2019, Annals of Clinical and Translational Neurology 6(9)). Mating colonies were composed of wild-type female mice and GLUT1-DS male mice, or GLUT1-DS female mice and wild-type male mice. F1 pups were genotyped after ear punching at weaning using PCR to determine genotype. Mice of 2 to 3 months of age were used.\nMotor strength was measured on the grip strength test (Bioseb) after rotarod session. Wild-type (WT) and GLUT1-DS transgenic mice were placed with 4 paws on the grid and maximal grip strength was recorded over 2 sessions with 5 minutes apart. Maximal grip strength over the 2 sessions was recorded."}, "APOE4(+) transgenic mice": {"system": "APOE4(+) transgenic mice", "test": "Morris Water Maze memory in APOE4(+) mouse model of Alzheimer's disease", "type": "in vivo", "settings": "30 mg/kg, 7 days after training", "text": "Mouse models carrying the APOE4 human allele have a decrease in metabolic gene expression and cerebral glucose uptake compared to APOE3-expressing model (Williams et al., 2020, neurobiol dis, 136:104742; Lin et al., 2015, J Cereb Blood Flow Metabl, 37(1):217-226; Alata et al., 2015, J Cereb Blood Flow Metab, 35(1):86-94. These physiological perturbations induce a brain hypometabolism, which recapitulates brain metabolic status observed in AD carriers of APOE4 allele. Male and female APOE4(+) and APOE3(+) (controls) transgenic mice are used at 3 months of age. Memory of APOE3(+) mice treated with Veh and APOE4 (+) mice treated with Veh or compound (2) at 10 mg/kg and 30 mg/kg is tested in the Morris Water Maze, as described below. Treatment is administered at each day of training, 30 minutes before the first training session. No treatment is administered during memory retention test.\nMorris Water Maze (MWM), a well-established spatial and contextual memory test, will be used. […] A number of parameters including the latency to find the platform, time spent around the platform, path efficiency, % time spent in each quadrant is recorded, using automated tracking software (Ethovision). The type of exploration (direct, random, scan of the area) is also recorded. […]"}}, "data": [{"smiles": "COc1cc2ccnc(Nc3ccc(S(C)(=O)=O)cc3)c2cc1OC", "note": "[Compound 2, 6,7-dimethoxy-N-(4-methylsulfonylphenyl)isoquinolin-1-amine]", "values": [{"measurement": "release of lactate", "setting": "[1]", "result": "increased"}, {"measurement": "glucose uptake in the brain (18F-FDG in the whole brain)", "setting": "C57Bl/6J wild-type mice", "result": "increases glucose uptake in the brain"}, {"measurement": "muscle strength (grip strength)", "setting": "[2]", "result": "did not lead to any difference on muscle strength"}, {"measurement": "memory in the Morris Water Maze", "setting": "APOE4(+) transgenic mice", "result": "significant increase of memory"}]}]}
